Article PMC12777510 (Chempluschem, 2025)
In brackets after ≈: the same amount, converted by molar mass. Read-outs that look alike come from different tables or passages of the source. *1 amine or outer side, *2 acyl side, *3 side chain or, on linkers, in order; H or OH if unused. Where a SMILES comes first, the peptide text is derived from it. [ ]: non-standard residue; d: D form. X2 = O=C([C@@H](Cc1cc(C(F)(F)F)c(O)c(C(F)(F)F)c1)N[*:1])[*:2]; Aminotetradecanoyl(3R) = CCCCCCCCCCC[C@H](CC(=O)[*:2])N[*:1]; dTyr(3-CF3) = N[C@H](Cc1ccc(O)c(C(F)(F)F)c1)C(=O)O; X1 = O=C(C[C@@H](CCCCCCCCCCC(F)(F)F)N[*:1])[*:2]

Experiments:
[1] = tested on: Fusarium graminearum; conditions: broth microdilution, RPMI 1640 pH 7, 96-well plates, 28 °C for 48 h, no agitation, visual read-out, lowest concentration with complete inhibition of growth; DMSO max 2.5% v/v; triplicate
[2] = tested on: Candida albicans; conditions: for MIC C. albicans: 24 h, pH 7
[3] = tested on: Fusarium graminearum; experiment: microbe, parasite or virus in culture; conditions: 48 h, pH 7, read-out: MIC F. graminearum
[4] = tested on: Candida albicans; experiment: microbe, parasite or virus in culture; conditions: 24 h, pH 7, read-out: MIC C. albicans
[5] = 19F NMR samples in D2O containing Saboraud Dextrose Broth (30 g/L), 5% d6-DMSO added to avoid precipitation
[6] = HPLC retention times compared to parent iturin A2, result in words

NC(=O)CC[C@@H]1NC(=O)[C@@H](CC(N)=O)NC(=O)[C@@H](Cc2ccc(O)cc2)NC(=O)[C@H](CC(N)=O)NC(=O)C[C@@H](CCCCCCCCCCC(F)(F)F)NC(=O)[C@H](CO)NC(=O)[C@@H](CC(N)=O)NC(=O)[C@@H]2CCCN2C1=O [Compound 9, ω‐CF3 iturin A2] (cyclo(N[dY][dN]QP[dN]S[X1]))
MIC F. graminearum [1]: 64 µM (≈ 70.2 µg/mL) | change in bioactivity against C. albicans compared to iturin A2 [2]: completely retains the bioactivity | MIC C. albicans [2]: 64 µM (≈ 70.2 µg/mL)

C[C@@H]1[C@H](O)[C@@H](C)/C=C/C=C/C=C/C=C/C=C/C=C/C=C/[C@H](O[C@@H]2O[C@H](C)[C@@H](O)[C@H](N)[C@@H]2O)C[C@@H]2O[C@](O)(C[C@@H](O)C[C@@H](O)[C@H](O)CC[C@@H](O)C[C@@H](O)CC(=O)O[C@H]1C)C[C@H](O)[C@H]2C(=O)O [Amphotericin B]
MIC [3]: 4 µM (≈ 3.7 µg/mL) | MIC [4]: 2 µM (≈ 1.85 µg/mL)

CCCCCCCCCCC[C@@H]1CC(=O)N[C@@H](CC(N)=O)C(=O)N[C@H](Cc2ccc(O)c(C(F)(F)F)c2)C(=O)N[C@H](CC(N)=O)C(=O)N[C@@H](CCC(N)=O)C(=O)N2CCC[C@H]2C(=O)N[C@H](CC(N)=O)C(=O)N[C@@H](CO)C(=O)N1 [Compound 10, o‐CF3‐Tyr iturin A2] (cyclo(N[dTyr(3-CF3)][dN]QP[dN]S[Aminotetradecanoyl(3R)]))
MIC F. graminearum [1]: 128 µM (≈ 142 µg/mL) | MIC C. albicans [2]: 128 µM (≈ 142 µg/mL) | aqueous solubility [5]: 50 µM (≈ 55.6 µg/mL) | relative lipophilicity (hydrophobicity) by HPLC retention, compared to the natural lipopeptide [6]: pronounced increase in lipophilicity | relative lipophilicity (hydrophobicity) by HPLC retention, compared to the natural lipopeptide ([6]; listed as o‐CF3‐Tyr): increased proportionally to the increase in fluorine content

CCCCCCCCCCC[C@@H]1CC(=O)N[C@@H](CC(N)=O)C(=O)N[C@H](Cc2cc(C(F)(F)F)c(O)c(C(F)(F)F)c2)C(=O)N[C@H](CC(N)=O)C(=O)N[C@@H](CCC(N)=O)C(=O)N2CCC[C@H]2C(=O)N[C@H](CC(N)=O)C(=O)N[C@@H](CO)C(=O)N1 [Compound 11, di‐o‐CF3‐Tyr iturin A2] (cyclo(N[X2][dN]QP[dN]S[Aminotetradecanoyl(3R)]))
MIC F. graminearum [1]: >128 µM | MIC C. albicans [2]: >128 µM | relative lipophilicity (hydrophobicity) by HPLC retention, compared to the natural lipopeptide [6]: increased proportionally to the increase in fluorine content

CCCCCCCCCCC[C@@H]1CC(=O)N[C@@H](CC(N)=O)C(=O)N[C@H](Cc2ccc(O)cc2)C(=O)N[C@H](CC(N)=O)C(=O)N[C@@H](CCC(N)=O)C(=O)N2CCC[C@H]2C(=O)N[C@H](CC(N)=O)C(=O)N[C@@H](CO)C(=O)N1 [Synthetic iturin A2, iturin A2, reference compound] (cyclo(N[dY][dN]QP[dN]S[Aminotetradecanoyl(3R)]))
MIC F. graminearum [1]: 16 µM (≈ 16.7 µg/mL) | MIC C. albicans [2]: 64 µM (≈ 66.8 µg/mL)
